Experimental data published in article PMC9908924, “Accelerating inhibitor discovery for deubiquitinating enzymes” (Nature Communications, 2023).
Blank lines part the entries; values can stand above or below the compound they belong to.

Columns and labels:
[1] = biological target: T1, UCHL1 (Homo sapiens, UniProt P09936); assay: active-site cysteine modification (in-house validation); assay type: binding; conditions: covalent
T1 construct: full length residues 1-223, N-terminal GST tag (pGEX6P1), 3C protease elution, E. coli BL21(DE3)
T1 sequence (P09936 1-223): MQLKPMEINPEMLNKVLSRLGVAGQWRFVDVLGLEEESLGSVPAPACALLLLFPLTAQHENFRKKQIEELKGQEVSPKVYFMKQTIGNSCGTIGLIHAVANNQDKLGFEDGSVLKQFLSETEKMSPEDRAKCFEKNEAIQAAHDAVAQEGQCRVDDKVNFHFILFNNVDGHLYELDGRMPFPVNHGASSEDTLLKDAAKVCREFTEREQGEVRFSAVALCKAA

[2] = biological target: T2, USP40 (Homo sapiens, UniProt Q9NVE5); assay: DUB-ABPP competition with biotin-Ub-PA / biotin-Ub-VME, TMT MS; assay type: biochemical; conditions: chloroacetamide; 10 µM
T2 construct: endogenous full-length protein in HEK293T lysate
T2 sequence (Q9NVE5 1-1235): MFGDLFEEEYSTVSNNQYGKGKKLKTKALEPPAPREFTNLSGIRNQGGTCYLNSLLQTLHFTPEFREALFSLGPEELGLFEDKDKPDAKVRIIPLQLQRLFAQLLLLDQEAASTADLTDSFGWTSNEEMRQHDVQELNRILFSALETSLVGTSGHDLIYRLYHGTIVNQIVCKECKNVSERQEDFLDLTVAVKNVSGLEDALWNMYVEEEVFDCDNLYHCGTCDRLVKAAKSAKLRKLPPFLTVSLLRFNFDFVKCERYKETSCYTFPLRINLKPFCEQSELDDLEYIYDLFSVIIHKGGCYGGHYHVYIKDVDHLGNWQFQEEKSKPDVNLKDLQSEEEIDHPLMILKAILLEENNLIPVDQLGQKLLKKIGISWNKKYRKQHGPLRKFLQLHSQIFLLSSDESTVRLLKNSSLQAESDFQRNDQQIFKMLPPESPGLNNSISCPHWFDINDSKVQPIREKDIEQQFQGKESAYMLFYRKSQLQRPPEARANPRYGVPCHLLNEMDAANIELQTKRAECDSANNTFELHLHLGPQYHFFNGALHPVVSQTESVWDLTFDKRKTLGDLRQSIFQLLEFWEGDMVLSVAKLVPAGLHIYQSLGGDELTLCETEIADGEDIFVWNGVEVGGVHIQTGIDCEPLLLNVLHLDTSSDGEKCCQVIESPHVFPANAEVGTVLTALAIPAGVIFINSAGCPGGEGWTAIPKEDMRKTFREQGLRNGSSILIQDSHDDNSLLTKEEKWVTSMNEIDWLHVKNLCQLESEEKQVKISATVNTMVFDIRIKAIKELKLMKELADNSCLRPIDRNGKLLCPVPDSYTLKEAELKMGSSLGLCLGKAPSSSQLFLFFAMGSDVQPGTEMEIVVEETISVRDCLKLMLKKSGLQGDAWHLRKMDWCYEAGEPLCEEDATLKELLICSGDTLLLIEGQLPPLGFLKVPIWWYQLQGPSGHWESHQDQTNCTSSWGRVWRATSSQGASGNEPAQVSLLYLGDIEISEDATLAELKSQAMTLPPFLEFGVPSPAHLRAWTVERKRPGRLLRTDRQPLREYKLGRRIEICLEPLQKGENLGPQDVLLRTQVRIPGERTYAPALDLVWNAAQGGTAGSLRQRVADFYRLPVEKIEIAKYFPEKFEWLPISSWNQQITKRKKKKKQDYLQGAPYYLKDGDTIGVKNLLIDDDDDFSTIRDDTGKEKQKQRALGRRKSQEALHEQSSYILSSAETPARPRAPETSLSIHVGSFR

[3] = biological target: T3, VCPIP1 (Homo sapiens, UniProt Q96JH7); assay: targeted cysteine chemoproteomics (PRM-LIVE); assay type: biochemical; conditions: covalent (catalytic cysteine); 50 µM compound in cell extract
T3 construct: endogenous full-length protein in HEK293 / HEK293T cell extract
T3 sequence (Q96JH7 1-1222): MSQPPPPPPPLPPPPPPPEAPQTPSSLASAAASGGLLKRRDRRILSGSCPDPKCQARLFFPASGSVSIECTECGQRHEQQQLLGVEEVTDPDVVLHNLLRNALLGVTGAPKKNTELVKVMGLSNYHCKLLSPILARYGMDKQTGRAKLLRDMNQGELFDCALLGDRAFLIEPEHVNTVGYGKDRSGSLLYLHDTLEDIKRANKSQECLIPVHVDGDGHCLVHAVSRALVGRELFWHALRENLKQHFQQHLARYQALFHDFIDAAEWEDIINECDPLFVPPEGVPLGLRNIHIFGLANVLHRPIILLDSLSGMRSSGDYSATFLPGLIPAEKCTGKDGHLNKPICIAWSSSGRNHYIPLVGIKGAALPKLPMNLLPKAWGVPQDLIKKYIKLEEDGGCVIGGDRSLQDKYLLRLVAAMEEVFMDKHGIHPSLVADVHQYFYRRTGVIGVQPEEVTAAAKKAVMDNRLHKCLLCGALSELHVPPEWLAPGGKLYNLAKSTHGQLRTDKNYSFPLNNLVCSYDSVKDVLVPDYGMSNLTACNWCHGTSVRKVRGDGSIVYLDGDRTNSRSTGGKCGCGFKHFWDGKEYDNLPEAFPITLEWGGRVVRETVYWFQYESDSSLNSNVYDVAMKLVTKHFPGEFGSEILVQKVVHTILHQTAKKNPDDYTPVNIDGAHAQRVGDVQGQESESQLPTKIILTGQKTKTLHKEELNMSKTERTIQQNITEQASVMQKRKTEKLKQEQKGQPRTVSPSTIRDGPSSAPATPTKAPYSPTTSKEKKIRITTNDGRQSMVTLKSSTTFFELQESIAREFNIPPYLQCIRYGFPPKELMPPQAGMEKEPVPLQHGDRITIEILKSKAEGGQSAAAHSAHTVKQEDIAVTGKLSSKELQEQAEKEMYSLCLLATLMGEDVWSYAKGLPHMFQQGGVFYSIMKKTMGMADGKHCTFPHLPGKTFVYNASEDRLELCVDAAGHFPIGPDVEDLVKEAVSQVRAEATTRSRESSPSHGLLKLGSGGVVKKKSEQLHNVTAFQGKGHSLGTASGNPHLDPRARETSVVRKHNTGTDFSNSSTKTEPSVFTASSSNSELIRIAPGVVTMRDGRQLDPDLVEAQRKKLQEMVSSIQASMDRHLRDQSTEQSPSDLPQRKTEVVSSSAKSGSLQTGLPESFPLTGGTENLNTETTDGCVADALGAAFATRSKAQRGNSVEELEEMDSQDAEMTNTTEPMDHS

[4] = biological target: T4, BAP1 (Homo sapiens, UniProt Q92560); assay: DUB-ABPP competition with biotin-Ub-PA / biotin-Ub-VME, TMT MS; assay type: biochemical; conditions: chloroacetamide; 50 µM
T4 construct: endogenous full-length protein in HEK293T lysate
T4 sequence (Q92560 1-729): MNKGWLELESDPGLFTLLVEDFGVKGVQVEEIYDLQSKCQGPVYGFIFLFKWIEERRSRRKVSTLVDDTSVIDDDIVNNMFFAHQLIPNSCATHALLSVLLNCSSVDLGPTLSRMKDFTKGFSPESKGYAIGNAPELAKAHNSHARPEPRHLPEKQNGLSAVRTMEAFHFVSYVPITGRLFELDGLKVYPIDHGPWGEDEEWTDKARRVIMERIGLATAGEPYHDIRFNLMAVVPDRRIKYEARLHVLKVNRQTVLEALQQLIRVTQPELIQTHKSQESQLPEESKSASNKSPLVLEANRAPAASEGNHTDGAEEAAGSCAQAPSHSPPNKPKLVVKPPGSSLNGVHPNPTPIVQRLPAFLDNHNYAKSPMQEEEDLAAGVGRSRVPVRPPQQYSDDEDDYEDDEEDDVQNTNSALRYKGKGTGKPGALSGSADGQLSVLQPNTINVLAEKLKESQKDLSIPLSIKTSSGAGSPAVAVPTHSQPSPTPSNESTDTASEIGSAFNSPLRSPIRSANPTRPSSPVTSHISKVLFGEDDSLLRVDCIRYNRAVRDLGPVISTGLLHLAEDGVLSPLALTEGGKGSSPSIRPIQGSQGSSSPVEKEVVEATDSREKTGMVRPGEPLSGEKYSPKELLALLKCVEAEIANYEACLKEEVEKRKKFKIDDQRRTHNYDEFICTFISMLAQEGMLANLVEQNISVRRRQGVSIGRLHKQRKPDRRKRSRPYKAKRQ

[5] = biological target: T5, USP7 (Homo sapiens, UniProt Q93009); assay: as above; assay type: biochemical; conditions: covalent inhibitor
T5 construct: endogenous full-length protein in HEK293T lysate

[6] = biological target: T6, USP22 (Homo sapiens, UniProt Q9UPT9); design: ubiquitin-rhodamine cleavage by purified DUB, fluorescence initial rate, 6 h pre-incubation with inhibitor; conditions: n=1; inhibitor
T6 construct: purified enzyme
T6 sequence (Q9UPT9 1-525): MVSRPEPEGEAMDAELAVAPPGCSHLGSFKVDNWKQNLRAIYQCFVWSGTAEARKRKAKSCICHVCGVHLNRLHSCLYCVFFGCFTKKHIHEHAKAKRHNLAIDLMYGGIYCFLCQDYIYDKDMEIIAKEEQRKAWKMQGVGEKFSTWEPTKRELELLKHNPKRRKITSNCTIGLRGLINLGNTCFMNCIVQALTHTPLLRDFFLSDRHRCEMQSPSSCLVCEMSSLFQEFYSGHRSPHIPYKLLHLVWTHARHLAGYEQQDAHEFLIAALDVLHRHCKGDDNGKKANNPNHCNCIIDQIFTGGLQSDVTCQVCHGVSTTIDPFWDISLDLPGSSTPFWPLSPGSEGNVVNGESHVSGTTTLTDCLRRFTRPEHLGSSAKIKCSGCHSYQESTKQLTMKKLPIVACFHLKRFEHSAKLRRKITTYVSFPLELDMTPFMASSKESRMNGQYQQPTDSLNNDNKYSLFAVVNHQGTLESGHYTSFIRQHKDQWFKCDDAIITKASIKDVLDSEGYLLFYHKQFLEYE

T5 sequence (Q93009 whole entry): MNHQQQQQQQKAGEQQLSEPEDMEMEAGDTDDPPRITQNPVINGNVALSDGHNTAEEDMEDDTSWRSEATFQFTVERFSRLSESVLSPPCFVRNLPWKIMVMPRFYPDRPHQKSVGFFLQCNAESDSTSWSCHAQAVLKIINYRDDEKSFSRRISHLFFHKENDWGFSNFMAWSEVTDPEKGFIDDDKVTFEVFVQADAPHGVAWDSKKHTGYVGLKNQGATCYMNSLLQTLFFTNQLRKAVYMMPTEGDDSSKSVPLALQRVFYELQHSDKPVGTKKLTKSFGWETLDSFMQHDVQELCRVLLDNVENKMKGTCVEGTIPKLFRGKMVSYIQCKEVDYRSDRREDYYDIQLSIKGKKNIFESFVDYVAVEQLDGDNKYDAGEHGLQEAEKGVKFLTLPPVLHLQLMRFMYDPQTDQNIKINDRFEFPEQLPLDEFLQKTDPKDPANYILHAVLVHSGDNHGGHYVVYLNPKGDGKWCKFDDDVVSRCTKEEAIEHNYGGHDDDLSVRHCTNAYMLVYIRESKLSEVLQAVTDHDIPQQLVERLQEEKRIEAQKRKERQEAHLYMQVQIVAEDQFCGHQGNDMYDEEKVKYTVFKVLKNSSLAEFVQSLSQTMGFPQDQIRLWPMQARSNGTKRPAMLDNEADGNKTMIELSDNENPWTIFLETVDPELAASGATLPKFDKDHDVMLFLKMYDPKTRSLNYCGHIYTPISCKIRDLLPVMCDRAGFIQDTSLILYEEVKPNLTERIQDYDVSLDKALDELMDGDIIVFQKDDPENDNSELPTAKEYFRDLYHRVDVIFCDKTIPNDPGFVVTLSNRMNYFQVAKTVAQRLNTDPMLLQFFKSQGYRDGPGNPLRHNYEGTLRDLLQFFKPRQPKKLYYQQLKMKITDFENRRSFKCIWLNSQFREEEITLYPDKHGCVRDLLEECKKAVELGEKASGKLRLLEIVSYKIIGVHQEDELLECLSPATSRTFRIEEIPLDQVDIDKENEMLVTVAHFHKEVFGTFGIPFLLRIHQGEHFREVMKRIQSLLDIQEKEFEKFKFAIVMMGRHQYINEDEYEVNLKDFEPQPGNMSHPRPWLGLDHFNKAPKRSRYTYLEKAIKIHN

Structure (SMILES): N#CN1CCC(C(=O)Nc2cn(Cc3ccccc3)cn2)C1 (stereo not drawn) [SB1-F-22]
active-site cysteine modification (in-house validation) [1]: validated in-house to modify the active site cysteine of UCHL1

Structure (SMILES): O=C(NCC1CN(C(=O)CCl)C1)c1ccccc1 [WH-9943-103C]
% target occupancy at 50 μM [3]: ~ 78% | DUB-ABPP competition with biotin-Ub-PA / biotin-Ub-VME, TMT MS [4]: hit several DUBs including VCPIP1 (WH-9943-103C), BAP1 (WH-9943-103C)

Structure (SMILES): CN1CCN(CCC(=O)Nc2ccc3c(=O)n(CC4(O)CCN(C(=O)[C@@H](CCCNC(=O)c5ccc6c(Cl)c7c(nc6c5)CCCC7)Cc5ccccc5)CC4)cnc3c2)CC1 [XL177A]
DUB-ABPP competition with biotin-Ub-PA / biotin-Ub-VME, TMT MS [5]: recapitulated the DUB binding profiles expected for our selective chemotypes

Results, then the compound that gave them:

DUB-ABPP competition with biotin-Ub-PA / biotin-Ub-VME, TMT MS [2]: USP16 (V03), and USP40 (V08, V09)
Structure (SMILES): COc1ccc(C(=O)NCC2CN(C(=O)CCl)C2)cc1 [V08]

IC50 [6]: 94.4 µM
Structure (SMILES): O=C(CCl)N1CCC(O)(CNc2ncc3ccccc3n2)CC1 [XL_10320_009A]
